{"source": "ChEMBL document CHEMBL3044774", "about": "“Synthesis of D-glucosamine quaternary ammonium derivatives and evaluation of their antifungal activity together with aminodeoxyglucose derivatives against two wood fungi Coriolus versicolor and Poria placenta: structure-activity relationships” (2011)", "format_in_all_cases": "functional", "key": {"[1]": {"tested_on": "Trametes versicolor", "assay": "Antifungal activity against Trametes versicolor Quel. CTB 863-A assessed as mycelial growth inhibition at 1.5 x 10^-4 mol/ml after 9 days relative to control"}, "[2]": {"tested_on": "Poria", "assay": "Antifungal activity against Poria placenta FPRL 280 assessed as mycelial growth inhibition at 0.75 x 10^-4 mol/ml after 9 days relative to control"}, "[3]": {"tested_on": "Trametes versicolor", "assay": "Antifungal activity against Trametes versicolor Quel. CTB 863-A assessed as mycelial growth inhibition at 1 x 10^-4 mol/ml after 9 days relative to control"}, "[4]": {"tested_on": "Poria", "assay": "Antifungal activity against Poria placenta FPRL 280 assessed as mycelial growth inhibition at 0.5 x 10^-4 mol/ml after 9 days relative to control"}}, "data": [{"smiles": "CC(=O)OC[C@H]1OC(OC(C)=O)[C@H](N(C)C)[C@@H](OC(C)=O)[C@@H]1OC(C)=O", "note": "(stereo partly specified)", "values": [{"measurement": "growth inhibition (GI)", "setting": "[1]", "result": 34.9, "unit": "%"}, {"measurement": "growth inhibition (GI)", "setting": "[2]", "result": 48.2, "unit": "%"}]}, {"smiles": "N[C@@H]1O[C@H](CO)[C@@H](O)[C@H](O)[C@H]1O", "values": [{"measurement": "growth inhibition (GI)", "setting": "[3]", "result": 50.6, "unit": "%"}, {"measurement": "growth inhibition (GI)", "setting": "[4]", "result": 81.6, "unit": "%"}, {"measurement": "growth inhibition (GI)", "setting": "[1]", "result": 82.4, "unit": "%"}, {"measurement": "growth inhibition (GI)", "setting": "[2]", "result": 100, "unit": "%"}]}, {"smiles": "N[C@H]1[C@H](O)[C@@H](CO)OC(O)[C@@H]1O", "note": "(stereo partly specified)", "values": [{"measurement": "growth inhibition (GI)", "setting": "[3]", "result": 0, "unit": "%"}, {"measurement": "growth inhibition (GI)", "setting": "[4]", "result": 18.4, "unit": "%"}, {"measurement": "growth inhibition (GI)", "setting": "[1]", "result": 14.9, "unit": "%"}, {"measurement": "growth inhibition (GI)", "setting": "[2]", "result": 26.7, "unit": "%"}]}, {"smiles": "NC[C@H]1O[C@@H](O)[C@H](O)[C@@H](O)[C@@H]1O", "values": [{"measurement": "growth inhibition (GI)", "setting": "[3]", "result": 6.7, "unit": "%"}, {"measurement": "growth inhibition (GI)", "setting": "[4]", "result": 27.1, "unit": "%"}, {"measurement": "growth inhibition (GI)", "setting": "[1]", "result": 19.2, "unit": "%"}, {"measurement": "growth inhibition (GI)", "setting": "[2]", "result": 31.7, "unit": "%"}]}, {"smiles": "CC(=O)OC[C@H]1OC(OC(C)=O)[C@H]([N+](C)(C)C)[C@@H](OC(C)=O)[C@@H]1OC(C)=O", "note": "(stereo partly specified)", "values": [{"measurement": "growth inhibition (GI)", "setting": "[1]", "result": 45.9, "unit": "%"}, {"measurement": "growth inhibition (GI)", "setting": "[2]", "result": 74.1, "unit": "%"}]}, {"smiles": "CCN[C@H]1C(OC(C)=O)O[C@H](COC(C)=O)[C@@H](OC(C)=O)[C@@H]1OC(C)=O", "note": "(stereo partly specified)", "values": [{"measurement": "growth inhibition (GI)", "setting": "[1]", "result": 53.7, "unit": "%"}]}, {"smiles": "CC[N+](C)(C)[C@H]1C(OC(C)=O)O[C@H](COC(C)=O)[C@@H](OC(C)=O)[C@@H]1OC(C)=O", "note": "(stereo partly specified)", "values": [{"measurement": "growth inhibition (GI)", "setting": "[1]", "result": 74.9, "unit": "%"}, {"measurement": "growth inhibition (GI)", "setting": "[2]", "result": 80, "unit": "%"}]}, {"smiles": "CCN[C@H]1C(O)O[C@H](CO)[C@@H](O)[C@@H]1O", "note": "(stereo partly specified)", "values": [{"measurement": "growth inhibition (GI)", "setting": "[1]", "result": 40.4, "unit": "%"}, {"measurement": "growth inhibition (GI)", "setting": "[2]", "result": 47.1, "unit": "%"}]}, {"smiles": "CC[N+](C)(C)[C@H]1C(O)O[C@H](CO)[C@@H](O)[C@@H]1O.O=S(=O)([O-])O", "note": "(stereo partly specified)", "values": [{"measurement": "growth inhibition (GI)", "setting": "[1]", "result": 64.4, "unit": "%"}, {"measurement": "growth inhibition (GI)", "setting": "[2]", "result": 77.2, "unit": "%"}]}, {"smiles": "CC(=O)OC[C@H]1OC(OC(C)=O)[C@H](NC2CCCCC2)[C@@H](OC(C)=O)[C@@H]1OC(C)=O", "note": "(stereo partly specified)", "values": [{"measurement": "growth inhibition (GI)", "setting": "[1]", "result": 87.9, "unit": "%"}, {"measurement": "growth inhibition (GI)", "setting": "[2]", "result": 91.8, "unit": "%"}]}, {"smiles": "CC(=O)OC[C@H]1OC(OC(C)=O)[C@H]([N+](C)(C)C2CCCCC2)[C@@H](OC(C)=O)[C@@H]1OC(C)=O", "note": "(stereo partly specified)", "values": [{"measurement": "growth inhibition (GI)", "setting": "[1]", "result": 100, "unit": "%"}, {"measurement": "growth inhibition (GI)", "setting": "[2]", "result": 100, "unit": "%"}]}, {"smiles": "N[C@H]1C(O)O[C@H](CO)[C@@H](O)[C@@H]1O", "note": "(stereo partly specified) [GLUCOSAMINE]", "values": [{"measurement": "growth inhibition (GI)", "setting": "[3]", "result": 0, "unit": "%"}, {"measurement": "growth inhibition (GI)", "setting": "[4]", "result": 10.2, "unit": "%"}, {"measurement": "growth inhibition (GI)", "setting": "[1]", "result": 11, "unit": "%"}, {"measurement": "growth inhibition (GI)", "setting": "[2]", "result": 25.9, "unit": "%"}]}]}
